{"source": "paper PMC12205066", "about": "“Lysosomal EGFR acts as a Rheb-GEF independent of its kinase activity to activate mTORC1” (Cell Research, 2025)", "target": "T1, Rheb (Homo sapiens, UniProt Q15382)", "T1 construct": "GST-tagged Rheb amino acids 1–169", "T1 sequence (Q15382 1-169)": "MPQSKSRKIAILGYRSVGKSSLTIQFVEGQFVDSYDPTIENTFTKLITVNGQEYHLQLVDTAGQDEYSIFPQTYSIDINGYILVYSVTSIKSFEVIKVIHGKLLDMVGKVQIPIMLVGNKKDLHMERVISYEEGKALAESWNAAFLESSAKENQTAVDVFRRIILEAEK", "experiment": "RP-HPLC of nucleotide released from purified denatured GST-Rheb", "assay_type": "binding"}
{"smiles": "Nc1nc2c(ncn2[C@@H]2O[C@H](CO[P@](=O)(O)OP(=O)(O)O)[C@@H](O)[C@H]2O)c(=O)[nH]1", "note": "[GDP]", "values": [{"measurement": "RP-HPLC of nucleotide released from purified denatured GST-Rheb", "value": "glutathione-S-transferase (GST)-tagged Rheb, which had a substantial GDP-bound fraction"}]}
